This passage reports IC50 results from US11746098B2, “Proteasome activity enhancing compounds” (Proteostasis Therapeutics, Inc., priority 2018, dated 2023).

Molecules are shown by their SMILES. A value given as a limit tells only on which side of the number the result lay.

This experiment has as its target USP14 (Homo sapiens, UniProt P54578). Kind of experiment: USP14 Inhibition Assay. The experiment is classed as biochemical. The following applies: average value from a minimum of two experimental determinations, read-out: IC50 Category. The source says: The activity of the compound described herein to inhibit USP14 can be measured using previously described methodology [B. H. Lee et al. Nature 2010, 467 (9), 179, the contents of which are expressly incorporated by reference herein].
Example 6: USP14 Inhibition Assay
For `Cc1cc(C(=O)CN2CCCCC2)c(C)n1[C@H]1CC[C@@H](C(=O)O)CC1` [Compound 46, cis-4-(2,5-Dimethyl-3-(2-(piperidin-1-yl)acetyl)-1H-pyrrol-1-yl)cyclohexanecarboxylic acid], the IC50 (commonly the midpoint of a concentration-inhibition curve) was > 5 µM. Take `Cc1cc(Cl)cc(C)c1-n1ccc(C(=O)CN2CCCC2)c1` [Compound 23, 1-(1-(4-Chloro-2,6-dimethylphenyl)-1H-pyrrol-3-yl)-2-(pyrrolidin-1-yl)ethanone]: the IC50 is > 5 µM. On to `Cc1cc(C(=O)CN2CCCC2)c(C)n1-c1cccc2ccccc12` [Compound 8, 1-(2,5-Dimethyl-1-(naphthalen-1-yl)-1H-pyrrol-3-yl)-2-(pyrrolidin-1-yl)ethanone], for which the IC50 was > 5 µM. Take `Cc1cc(C(=O)CN2CCCCC2)c(C)n1CC(F)(F)F` [Compound 107, 1-(2,5-Dimethyl-1-(2,2,2-trifluoroethyl)-1H-pyrrol-3-yl)-2-(piperidin-1-yl)ethanone]: the IC50 was > 5 µM. The figure for `Cc1cc(C(=O)CN2CCC(O)CC2)c(C)n1-c1ccc(C(=O)O)cc1` [Compound 113, 4-(3-(2-(4-Hydroxypiperidin-1-yl)acetyl)-2,5-dimethyl-1H-pyrrol-1-yl)benzoic acid] is > 5 µM. In the case of `Cc1cc(C(=O)CN2CCCCC2)n(C)c1-c1ccc(Cl)cc1` [Compound 96, 1-(5-(4-Chlorophenyl)-1,4-dimethyl-1H-pyrrol-2-yl)-2-(piperidin-1-yl)ethanone], the IC50 is < 0.5 µM. On to `COc1cc(NS(=O)(=O)c2ccc(-n3c(C)cc(C(=O)CN4CCC(O)CC4)c3C)cc2)nc(OC)n1` [Compound 2, N-(2,6-Dimethoxypyrimidin-4-yl)-4-(3-(2-(4-hydroxypiperdin-1-yl)acetyl)-2,5-dimethyl-1H-pyrrol-1-yl)benzenesulfonamide], for which the IC50 was > 5 µM. `Cc1cc(C(=O)CN2CCCCC2)c(C)n1-c1ccc(Br)c(Cl)c1` [Compound 57, 1-(1-(4-Bromo-3-chloropheny1)-2,5-dimethyl-1H-pyrrol-3-yl)-2-(piperidin-1-yl)ethanone]: the IC50 is 0.5 to 5 µM. With `Cc1cc(C(=O)CC2CCNCC2)c(C)n1-c1ccc(Cl)cc1` [Compound 39, 1-(1-(4-Chlorophenyl)-2,5-dimethyl-1H-pyrrol-3-yl)-2-(piperidin-4-yl)ethanone], the IC50 was > 5 µM. On to `Cc1cc(C(=O)CN2CCCCC2)c(C)n1-c1ccc(F)c(F)c1` [Compound 69, 1-(1-(3,4-Difluorophenyl)-2,5-dimethyl-1H-pyrrol-3-yl)-2-(piperidin-1-yl)ethanone], for which the IC50 was 0.5 to 5 µM.

Consider `Cc1cc(C(=O)CN2CCC(O)CC2)c(C)n1-c1ccc(S(C)(=O)=O)cc1` [Compound 13, 1-(2,5-Dimethyl-1-(4-(methylsulfonyl)phenyl)-1H-pyrrol-3-yl)-2-(4-hydroxypiperidin-1-yl)ethanone], for which the IC50 is > 5 µM. For the compound `Cc1cc(C(=O)CN2CCCCC2)c(C)n1-c1cc(Cl)cc(Cl)c1` [Compound 17, 1-(1-(3,5-Dichlorophenyl)-2,5-dimethyl-1H-pyrrol-3-yl)-2-(piperidin-1-yl)ethanone], the IC50 was > 5 µM.

For the compound `CC#Cc1ccc(-n2c(C)cc(C(=O)CN3CCCCC3)c2C)cc1` [Compound 136, 1-(2,5-Dimethyl-1-(4-(prop-1-yn-1-yl)phenyl)-1H-pyrrol-3-yl)-2-(piperidin-1-yl)ethanone], the IC50 lay within 0.5 to 5 µM.

`Cc1cc(C(=O)CN2CCCCC2)c(C)n1C1CCCCC1` [Compound 65, 1-(1-Cyclohexyl-2,5-dimethyl-1H-pyrrol-3-yl)-2-(piperidin-1-yl)ethanone]: the IC50 lay within 0.5 to 5 µM. The figure for `CC(=O)c1c(CN2CCCCC2)c(C)n(-c2ccc(C#N)cc2)c1C` [Compound 117, 4-(3-Acetyl-2,5-dimethyl-4-(piperidin-1-ylmethyl)-1H-pyrrol-1-yl)benzonitrile] is > 5 µM; for `Cc1cc(C(=O)CN2CCC(O)CC2)c(C)n1-c1cc(Cl)cc(Cl)c1` [Compound 18, 1-(1-(3,5-Dichlorophenyl)-2,5-dimethyl-1H-pyrrol-3-yl)-2-(4-hydroxypiperidin-1-yl)ethanone] it is > 5 µM; for `Cc1cc(C(=O)CC2CCCNC2)c(C)n1-c1ccc(Cl)cc1` (stereo not shown) [Compound 38, 1-(1-(4-Chlorophenyl)-2,5-dimethyl-1H-pyrrol-3-yl)-2-(piperidin-3-yl)ethanone] it is > 5 µM. On to `Cc1cc(C(=O)CNCCOCc2ccccc2)c(C)n1-c1ccc(C#N)cc1` [Compound 42, 4-(3-(2-((2-(Benzyloxy)ethyl)amino)acetyl)-2,5-dimethyl-1H-pyrrol-1-yl)benzonitrile], for which the IC50 was > 5 µM. Take `Cc1cc(C(=O)CN2CCCC2)n(C)c1-c1ccc(Cl)cc1` [Compound 92, 1-(5-(4-Chlorophenyl)-1,4-dimethyl-1H-pyrrol-2-yl)-2-(pyrrolidin-1-yl)ethanone]: the IC50 is < 0.5 µM. The figure for `Cc1cc(C(=O)CN2CCCC2)c(C)n1-c1ccc(Br)c(Cl)c1` [Compound 56, 1-(1-(4-Bromo-3-chlorophenyl)-2,5-dimethyl-1H-pyrrol-3-yl)-2-(pyrrolidin-1-yl)ethanone] is 0.5 to 5 µM; for `Cc1cc(C(=O)CN2CCC(O)(CN(C)C)C2)c(C)n1-c1ccc(Cl)cc1` (stereo not shown) [Compound 60, 1-(1-(4-Chlorophenyl)-2,5-dimethyl-1H-pyrrol-3-yl)-2-(3-((dimethylamino)methyl)-3-hydroxypyrrolidin-1-yl)ethanone] it is 0.5 to 5 µM; for `COc1cc(NS(=O)(=O)c2ccc(-n3c(C)cc(C(=O)CN4CCCC4)c3C)cc2)nc(OC)n1` [Compound 4, N-(2,6-Dimethoxypyrimidin-4-yl)-4-(2,5-dimethyl-3-(2-(pyrrolidin-1-yl)acetyl)-1H-pyrrol-1-yl)benzenesulfonamide] it is > 5 µM.

Consider `CCNC(=O)COC1CCN(CC(=O)c2cc(C)n(-c3ccc(Cl)cc3)c2C)CC1` [Compound 79, 2-((1-(2-(1-(4-Chlorophenyl)-2,5-dimethyl-1H-pyrrol-3-yl)-2-oxoethyl)piperidin-4-yl)oxy)-N-ethylacetamide], for which the IC50 was < 0.5 µM.

As for `Cc1cc(C(=O)CN2CCC(OCC(=O)NC3CC3)CC2)c(C)n1-c1ccc(F)cc1` [Compound 75, N-Cyclopropyl-2-((1-(2-(1-(4-fluorophenyl)-2,5-dimethyl-1H-pyrrol-3-yl)-2-oxoethyl)piperidin-4-yl)oxy)acetamide], the IC50 fell in the range of 0.5 to 5 µM.

Turning to `Cc1cc(C(=O)CN2CCCC2)c(C)n1-c1ccc(C#N)cc1` [Compound 85, 4-(2,5-Dimethyl-3-(2-(pyrrolidin-1-yl)acetyl)-1H-pyrrol-1-yl)benzonitrile], the IC50 was < 0.5 µM.

As for `COc1ccc(-n2c(C)cc(C(=O)CN3CCCCC3)c2C)cc1F` [Compound 63, 1-(1-(3-Fluoro-4-methoxyphenyl)-2,5-dimethyl-1H-pyrrol-3-yl)-2-(piperidin-1-yl)ethanone], the IC50 fell in the range of 0.5 to 5 µM. For `Cc1cc(C(=O)CNC2CCCCCC2)c(C)n1-c1ccc(Cl)cc1` [Compound 67, 1-(1-(4-Chlorophenyl)-2,5-dimethyl-1H-pyrrol-3-yl)-2-(cycloheptylamino)ethanone], the IC50 was in the range of 0.5 to 5 µM. Then `Cc1cc(C(=O)CN2CCCCC2)c(C)n1[C@H]1CC[C@H](C(N)=O)CC1` [Compound 122, trans-4-(2,5-Dimethyl-3-(2-(piperidin-1-yl)acetyl)-1H-pyrrol-1-yl)cyclohexane-1-carboxamide], with > 5 µM; and `Cc1cc(C(=O)CN2CCC(O)CC2)c(C)n1-c1ccc(Br)c(Cl)c1` [Compound 59, 1-(1-(4-Bromo-3-chlorophenyl)-2,5-dimethyl-1H-pyrrol-3-yl)-2-(4-hydroxypiperidin-1-yl)ethanone], with 0.5 to 5 µM.

As to `Cc1cc(C(=O)CN2CCCCC2)c(C)n1C1CCC(F)(F)CC1` [Compound 76, 1-(1-(4,4-Difluorocyclohexyl)-2,5-dimethyl-1H-pyrrol-3-yl)-2-(piperidin-1-yl)ethanone], the IC50 was in the range of 0.5 to 5 µM. Then `CC#Cc1ccc(-n2c(C)cc(C(=O)CN3CCC(O)CC3)c2C)cc1` [Compound 140, 1-(2,5-Dimethyl-1-(4-(prop-1-yn-1-yl)phenyl)-1H-pyrrol-3-yl)-2-(4-hydroxypiperidin-1-yl)ethanone], with 0.5 to 5 µM.
